# Laboratory results as given in article PMC12066314, “Apigenin promotes melanogenesis and melanosome transport through the c-KIT/Raf-1/MAPK/CREB pathway in HEMCs” (Frontiers in Pharmacology, 2025).
# Target: c-KIT (Homo sapiens, UniProt P10721)
# Assay: microscale thermophoresis (MST), […] target
# Assay type: binding
# Chain of c-KIT (P10721 26-976): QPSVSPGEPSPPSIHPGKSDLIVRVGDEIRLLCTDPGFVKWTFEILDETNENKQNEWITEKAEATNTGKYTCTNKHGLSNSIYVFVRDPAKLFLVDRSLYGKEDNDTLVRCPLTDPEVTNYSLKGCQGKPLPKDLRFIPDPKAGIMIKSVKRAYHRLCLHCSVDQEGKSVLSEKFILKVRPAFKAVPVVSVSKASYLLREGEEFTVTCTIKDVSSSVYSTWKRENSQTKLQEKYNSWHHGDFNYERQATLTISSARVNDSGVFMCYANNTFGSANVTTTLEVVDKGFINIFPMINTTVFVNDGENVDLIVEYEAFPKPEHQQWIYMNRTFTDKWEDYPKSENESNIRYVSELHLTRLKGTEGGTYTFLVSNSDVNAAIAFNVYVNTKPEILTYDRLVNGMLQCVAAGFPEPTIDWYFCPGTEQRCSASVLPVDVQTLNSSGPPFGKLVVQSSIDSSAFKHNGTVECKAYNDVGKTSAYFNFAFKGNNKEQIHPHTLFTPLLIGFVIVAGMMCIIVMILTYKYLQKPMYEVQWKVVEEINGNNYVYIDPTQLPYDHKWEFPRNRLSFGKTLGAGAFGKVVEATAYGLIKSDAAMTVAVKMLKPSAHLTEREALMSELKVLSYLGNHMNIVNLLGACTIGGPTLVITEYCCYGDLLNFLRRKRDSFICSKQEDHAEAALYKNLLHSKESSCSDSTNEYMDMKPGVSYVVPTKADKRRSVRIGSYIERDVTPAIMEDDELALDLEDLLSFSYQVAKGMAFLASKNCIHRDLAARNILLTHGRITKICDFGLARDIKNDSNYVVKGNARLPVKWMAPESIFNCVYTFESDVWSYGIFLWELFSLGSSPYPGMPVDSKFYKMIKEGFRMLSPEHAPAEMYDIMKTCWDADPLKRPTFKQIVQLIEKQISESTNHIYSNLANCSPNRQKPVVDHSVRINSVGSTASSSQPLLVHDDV
smiles,measurement,value
O=c1cc(-c2ccc(O)cc2)oc2cc(O)cc(O)c12 [Apigenin],Kd,2600 nM
